Experiments:
[1] = test system: gene expression in muscle; assay: RNA-seq differential gene expression in muscle tissue; format: in vivo, human; details: NR vs placebo
Description: For all subjects at both visits, total RNA was extracted from muscle biopsy tissue and PBMC homogenate using RNeasy plus mini kit (Qiagen) with on-column DNase treatment according to manufacturer's protocol. The final elution was made in 45 ul of dH2O. The concentration and integrity of the total RNA were estimated by Ribogreen assay (Thermo Fisher Scientific), and Fragment Analyzer (Advanced Analytical), respectively, and 10 ng of total RNA was used for downstream RNA-seq applications using the SMARTer Stranded Total RNA-Seq Kit v2-Pico Input Mammalian Kit (IlluminaTakara Bio USA, Inc., Mountian View, CA) as per manufacturer's recommended protocol. Library quantity was assessed by Picogreen Assay (Thermo Fisher Scientific), and the library quality was estimated by utilizing a DNA High Sense chip on a Caliper Gx (Perkin Elmer). Accurate quantification of the final libraries for sequencing applications was determined using the qPCR-based KAPA Biosystems Library Quantification kit (Kapa Biosystems, Inc.). Each library pooled equimolar prior to clustering. One hundred bp paired-end sequencing was performed on an Illumina NovaSeq S4 sequencer (Illumina, Inc.). Two subjects were discarded from the PBMC samples and two from the muscle samples due to either insufficient tissue quantity, participant drop out/lack of sample, or being outliers in expression. […] FASTQ files were assessed using […] version 0.11.9. Quantification at the transcript level was calculated using Salmon version 1.3.0 with fragment-level GC bias correction against the GENCODE version 35, with the whole genome as decoy sequence. Transcript-level quantification was collapsed onto gene-level using the tximport R package version 1.8.0. Genes in non-canonical chromosomes and scaffolds and transcripts encoded by the mitochondrial genome were filtered out, together with non-protein-coding genes. Low-expressed genes were likewise removed from downstream analyses (expression below 10 reads for 75% of the samples). PBMC and muscle datasets were analysed independently. For PBMC samples, cell type composition was assessed employing ABIS. Differential gene expression was performed using the DESeq2 R package version 1.22.2. The generalized linear model formula accounted for both interindividual variability between subjects and the normal course of the experiment (baseline for each subject and baseline for the time-course). Multiple hypothesis testing was performed with the default automatic filtering of DESeq2 followed by false discovery rate (FDR) calculation by the Benjamini-Hochberg procedure.

rats = details: rat, in vivo; cited from earlier work
patients with PD = assay: MDS-UPDRS / Hoehn & Yahr clinical rating, phase I trial; format: in vivo, human
Description: A single-center, double-blinded, randomized, placebo-controlled phase I trial of oral NR supplementation in newly diagnosed patients with PD was conducted. […] Due to the early onset, this patient underwent genetic investigation with whole-exome sequencing and SNP-chip based genome-wide copy number variation analysis, which excluded pathogenic mutations in PD-related genes, including PINK1 and PRKN. screening. Patient recruitment, inclusion, and follow-up was carried out by a GCP certified investigator. Sample size of 30 participants was chosen based on previously reported brain metabolic network analyses. Thirty PD patients were randomly assigned (Block size 6, allocation 1:1) to 500 mg NR, provided in the form of nicotinamide riboside chloride ([…]® from Chromadex), or placebo twice per day, 12 hours apart, using the electronic Case Report Form (Viedoc.com). The drug containers were sequentially marked by an independent third party. The […]®) and placebo were provided by ChromaDex, USA. Each NR capsule contained 250 mg of NR. Placebo capsules contained microcrystalline cellulose. The vials and capsules containing NR and placebo were identical in shape, colour, and smell. Study drug compliance was calculated from counting returned number of study capsules and self-reporting. Participants, examining physicians, medical- and research personnel were blinded for the duration of the trial. Sample size was determined by comparing previous literature with respect to the primary objective. At screening for trial entry, candidates underwent physical and neurological examination, brain MRI, and […]. Eligible patients who entered the trial were assessed at baseline (visit 1, V1) and after four weeks of exposure to either NR or placebo (visit 2, V2). At both visits, patients underwent physical and neurological examination, including assessment by the Movement Disorder Society Unified Parkinson's Disease Rating Scale section I-IV (MDS-UPDRS), and biological sampling. MR-PET was performed within one week prior to visit 1, and at visit 2. All participants remained naïve for antiparkinson drugs for the duration of the trial. All clinical assessments were performed by a blinded movement disorders expert. Each patient was examined by the same neurologist at both visits. Methodological details on each procedure are provided below. Safety was monitored through routine clinical blood tests and registration of adverse events. Adverse events (AE) were recorded and scored by the investigative physician. […] The AE relation to the study drug was scored as (1) unrelated, (2) unlikely, (3) possible, (4) probable or (5) definitely. The between visit change ([visit 2]-[visit 1]) in MDS-UPDRS (total of subsections I-III; and individual subsections I, II and III) was compared between the NR and placebo groups using independent Student's t-test. In addition, the between visit change in MDS-UPDRS (total and subsections) within the NR, MRS-responder, and placebo groups was assessed by paired Student's t-test. For the 31P-MRS analyses, the change in measured metabolites between visit 1 and visit 2 was assessed in the placebo- and NR group using paired Student's t-test. In addition, the between-visit change in NAD/ATP-α was compared between the NR and placebo group by independent Student's t-test. For PET analyses, changes in network scores with treatment were evaluated for each group separately using paired Student's t-tests or permutation tests. Relationships between network values, NAD levels and MDS-UPDRS motor ratings or between treatment-related changes in these variables were evaluated using Pearson's product-moment correlations; Spearman rank-order correlation coefficients were computed for non-normal distributions of the variables. These statistical tests were performed using SPSS (SPSS Inc., Chicago, IL); results were considered significant for p≤0.05 (two-tailed). […]

[2] = Visit 1 (baseline), MRS Responders N=10
[3] = Visit 1 (baseline), NR group N=15
[4] = Visit 2 (after four weeks), MRS Responders N=10
[5] = Visit 2 (after four weeks), NR group N=15

NC(=O)c1ccc[n+]([C@@H]2O[C@H](CO)[C@@H](O)[C@H]2O)c1 [NR, nicotinamide riboside]
KLF2 expression in muscle [1]: substantial upregulation
expression of PARP15, AMT, FARS2, TMEM242 in muscle [1]: upregulation
gene set enrichment in muscle: proteasomal function, RNA transport and stability [1]: upregulation
number of differentially expressed genes in muscle tissue ([1]; between visit differences, FDR<0.05): 58 genes
non-lethal oral dose (rats): ≥ 5000 mg/kg
mean decrease in MDS-UPDRS between visits (patients with PD; MRS-responder subgroup (n=10), paired t-test p=0.071): 1.9±2.78
clinical change as measured by the UPDRS scale (patients with PD; NR 1000 mg daily, one month): mild clinical improvement
motor symptoms in PD patients who received NR (patients with PD; NR 1000 mg daily, one month): no worsening of motor symptoms
Hoehn & Yahr Stage, mean (patients with PD; [2]): 1.7
MDS-UPDRS I, mean score (patients with PD; [2]): 6.2
MDS-UPDRS II, mean score (patients with PD; [2]): 6.4
MDS-UPDRS III, mean score (patients with PD; [2]): 29.6
Total score MDS-UPDRS (I-III), mean (patients with PD; [2]): 42.2
Hoehn & Yahr Stage, mean (patients with PD; [3]): 1.8
MDS-UPDRS I, mean score (patients with PD; [3]): 6.3
MDS-UPDRS II, mean score (patients with PD; [3]): 7.9
MDS-UPDRS III, mean score (patients with PD; [3]): 31.1
Total score MDS-UPDRS (I-III), mean (patients with PD; [3]): 45.2
Hoehn & Yahr Stage, mean (patients with PD; [4]): 1.8
MDS-UPDRS I, mean score (patients with PD; [4]): 5.3
MDS-UPDRS II, mean score (patients with PD; [4]): 6.4
MDS-UPDRS III, mean score (patients with PD; [4]): 28.7
Total score MDS-UPDRS (I-III), mean (patients with PD; [4]): 40.4
Hoehn & Yahr Stage, mean (patients with PD; [5]): 1.9
MDS-UPDRS I, mean score (patients with PD; [5]): 5.4
MDS-UPDRS II, mean score (patients with PD; [5]): 8.3
MDS-UPDRS III, mean score (patients with PD; [5]): 30.5
Total score MDS-UPDRS (I-III), mean (patients with PD; [5]): 44.1
mean decrease in MDS-UPDRS between visits (patients with PD; nine individuals with >10% increase in cerebral NAD, paired t-test p=0.017): 2.33±2.35

Reference: patent publication US20240366648A1, “NAD-AUGMENTATION THERAPY FOR PARKINSON'S DISEASE” (Vestlandets Innovasjonsselskap AS (VIS), priority 2021, published 2024)
